The numbers were not newly measured in patent publication US8232273B2, “Heterocyclic compounds and methods of use” (Genentech, Inc., priority 2008, dated 2012), which cites them from elsewhere.

Each structure is given as a SMILES string.

For one data set, the system named is xenograft models. Conditions: animal studies, single agent; cited from earlier work.
A further data set concerns Mcl-1 and A1. The following applies: cited from earlier work.
A further data set concerns Bcl-2, Bcl-w and Bcl-xL. The following applies: cited from earlier work.

Turning to `CN(C)CC[C@H](CSc1ccccc1)Nc1ccc(S(=O)(=O)NC(=O)c2ccc(N3CCN(Cc4ccccc4-c4ccc(Cl)cc4)CC3)cc2)cc1[N+](=O)[O-]` [ABT-737, N-(4-(4-((4′-chloro(1,1′-biphenyl)-2-yl)methyl)piperazin-1-yl)benzoyl)-4-(((1R)-3-(dimethylamino)-1-((phenylsulfanyl)methyl)propyl)amino)-3-nitrobenzenesulfonamide], the “cytotoxic activity in certain xenograft models as single agents” value in the data set with xenograft models was “demonstrated cytotoxic activity”. In the data set on Mcl-1 and A1, the “binding to Mcl-1 and A1” value is listed as “only weakly”. Further, the “binding to Bcl-2, Bcl-w and Bcl-xL” value in the data set on Bcl-2, Bcl-w and Bcl-xL is on record as “bind strongly”.
